{"source": "paper PMC11721817", "about": "(Toxicology Reports, 2024)", "key": {"[1]": {"tested_on": "HCT-116 (human colorectal cancer cells)", "test": "MTT cytotoxicity assay, HCT-116", "assay_type": "cell-based"}, "Wistar rats [2]": {"tested_on": "Wistar rats", "test": "Acute oral toxicity study", "conditions": "for change in body weight / food consumed by animals (weight) / change in organ weight, Kidney / change in organ weight, Liver / change in organ weight, Spleen: mean ± S.E.M, n = 5"}, "HCT-116 cells [3]": {"tested_on": "HCT-116 cells", "test": "Cell migration", "assay_type": "cell-based, human", "conditions": "24 h, control = 100 %"}, "Wistar rats [4]": {"tested_on": "Wistar rats", "test": "Lipid peroxidation assay", "assay_type": "in vivo, rat", "conditions": "1000 mg/kg, compared to control"}, "red blood cells (RBCs)": {"tested_on": "red blood cells (RBCs)", "test": "Hemolysis assay", "assay_type": "cell-based", "conditions": "rat blood, 10 μM, 25 μM, 50 μM, and 100 μM, compared to positive control"}, "Wistar rats [5]": {"tested_on": "Wistar rats", "test": "Histopathological examination of liver, kidney and spleen", "assay_type": "in vivo, rat", "conditions": "H&E"}, "Wistar rats [6]": {"tested_on": "Wistar rats", "test": "Superoxide dismutase activity in organ homogenates", "assay_type": "in vivo, rat", "conditions": "1000 mg/kg"}, "HCT-116 cells [7]": {"tested_on": "HCT-116 cells", "test": "DNA fragmentation, Hoechst staining, HCT-116", "assay_type": "cell-based, human", "conditions": "HCT-116, 50 µM, 24 h"}, "CT-26 cells [8]": {"tested_on": "CT-26 cells", "test": "Cell migration", "assay_type": "cell-based, murine", "conditions": "24 h, control = 100 %"}, "[9]": {"tested_on": "CT-26 (murine colorectal cancer cells)", "test": "MTT cytotoxicity assay, CT-26", "assay_type": "cell-based", "conditions": "Mus musculus, CT26, 24 h"}, "CT-26 cells [10]": {"tested_on": "CT-26 cells", "test": "DNA fragmentation, Hoechst staining, CT-26", "assay_type": "cell-based, murine", "conditions": "CT-26, 50 µM, 24 h"}, "Wistar rats [11]": {"tested_on": "Wistar rats", "test": "Serum biochemistry after acute oral administration", "conditions": "n = 3; for Globulin: normal range 1.5–2.5, mean ± S.E.M; for A/G ratio: normal range 1.58–2.67, mean ± S.E.M; for Albumin: normal range 3.4–4.8, mean ± S.E.M; for Total protein: normal range 5.2–7.1, mean ± S.E.M; for SGPT (ALT): normal range 18–45, mean ± S.E.M; for ALP: normal range 62–230, mean ± S.E.M; for SGOT (AST): normal range 74–183, mean ± S.E.M"}}, "data": [{"compound": "CC(C)(C)Nc1c(-c2ccc(-c3ccccc3)cc2)nc2ccccn12", "note": "[IG-01–007, 2-([1,1’-biphenyl]-4-yl)-N-(tert-butyl)imidazo[1,2-a]pyridine-3-amine]", "values": [{"measurement": "cell viability", "setting": "[1]; HCT-116, 10 μM and 25 μM", "value": "no significant reduction in cell viability"}, {"measurement": "IC50", "setting": "[1]; Homo sapiens, HCT-116, 24 h", "value": "30.1 ± 1.58", "unit": "µM"}, {"measurement": "change in body weight", "setting": "Wistar rats [2]; 0 day, 300 mg/kg", "value": "233 ± 2", "unit": "gm"}, {"measurement": "food consumed by animals (weight)", "setting": "Wistar rats [2]; 0 day, 300 mg/kg", "value": "93.8 ± 1.1575", "unit": "gm"}, {"measurement": "change in body weight", "setting": "Wistar rats [2]; 0 day, 1000 mg/kg", "value": "244 ± 15.6844", "unit": "gm"}, {"measurement": "food consumed by animals (weight)", "setting": "Wistar rats [2]; 0 day, 1000 mg/kg", "value": "94.8 ± 0.80", "unit": "gm"}, {"measurement": "change in organ weight, Kidney", "setting": "Wistar rats [2]; 300 mg/kg", "value": "1.6568 ± 0.110", "unit": "gm"}, {"measurement": "change in organ weight, Liver", "setting": "Wistar rats [2]; 300 mg/kg", "value": "6.58 ± 0.535", "unit": "gm"}, {"measurement": "change in organ weight, Spleen", "setting": "Wistar rats [2]; 300 mg/kg", "value": "0.654 ± 0.075", "unit": "gm"}, {"measurement": "change in organ weight, Kidney", "setting": "Wistar rats [2]; 1000 mg/kg", "value": "1.854 ± 0.1179", "unit": "gm"}, {"measurement": "change in organ weight, Liver", "setting": "Wistar rats [2]; 1000 mg/kg", "value": "6.204 ± 0.2716", "unit": "gm"}, {"measurement": "change in organ weight, Spleen", "setting": "Wistar rats [2]; 1000 mg/kg", "value": "0.716 ± 0.0508", "unit": "gm"}, {"measurement": "body weight course", "setting": "Wistar rats [2]; 7th and 14th day, 1000 mg/kg", "value": "gradual decrease in body weight"}, {"measurement": "change in body weight", "setting": "Wistar rats [2]; 7th day, 300 mg/kg", "value": "248 ± 3.391", "unit": "gm"}, {"measurement": "food consumed by animals (weight)", "setting": "Wistar rats [2]; 7th day, 300 mg/kg", "value": "90.4 ± 1.288", "unit": "gm"}, {"measurement": "change in body weight", "setting": "Wistar rats [2]; 7th day, 1000 mg/kg", "value": "238 ± 16.17", "unit": "gm"}, {"measurement": "food consumed by animals (weight)", "setting": "Wistar rats [2]; 7th day, 1000 mg/kg", "value": "88.6 ± 1.363", "unit": "gm"}, {"measurement": "change in body weight", "setting": "Wistar rats [2]; 14th day, 300 mg/kg", "value": "253 ± 8", "unit": "gm"}, {"measurement": "food consumed by animals (weight)", "setting": "Wistar rats [2]; 14th day, 300 mg/kg", "value": "89.2 ± 2.009", "unit": "gm"}, {"measurement": "food intake", "setting": "Wistar rats [2]; 14th day, 1000 mg/kg, compared to control", "value": "significant decrease in food intake"}, {"measurement": "change in body weight", "setting": "Wistar rats [2]; 14th day, 1000 mg/kg", "value": "231 ± 15.033", "unit": "gm"}, {"measurement": "food consumed by animals (weight)", "setting": "Wistar rats [2]; 14th day, 1000 mg/kg", "value": "82.4 ± 1.939", "unit": "gm"}, {"measurement": "toxicity signs", "setting": "Wistar rats [2]; oral, 1000 mg/kg", "value": "toxicity signs were seen"}, {"measurement": "tremors, change in eye and skin color", "setting": "Wistar rats [2]; oral, 1000 mg/kg", "value": "tremors, change in eye and skin color was observed"}, {"measurement": "Mortality", "setting": "Wistar rats [2]; oral, 2000 mg/kg", "value": "Mortality was observed"}, {"measurement": "% migration of cell", "setting": "HCT-116 cells [3]; HCT-116, 25 μM", "value": 41.75, "unit": "%"}, {"measurement": "% migration of cell", "setting": "HCT-116 cells [3]; HCT-116, 50 μM", "value": 35.07, "unit": "%"}, {"measurement": "MDA levels, liver", "setting": "Wistar rats [4]", "value": "significantly higher"}, {"measurement": "hemolytic activity", "setting": "red blood cells (RBCs)", "value": "did not show any hemolytic activity"}, {"measurement": "Liver sections, histopathology", "setting": "Wistar rats [5]; 300 mg/kg", "value": "healthy with normal hepatocytes while some sections were found to have non-uniform cell structure"}, {"measurement": "Spleen sections, histopathology", "setting": "Wistar rats [5]; 300 mg/kg", "value": "diffuse white pulp and distorted lymphoid architecture"}, {"measurement": "Liver sections, histopathology", "setting": "Wistar rats [5]; 1000 mg/kg", "value": "healthy with mild activation of kupffer cells indicated by circle and moderate steatosis"}, {"measurement": "Spleen sections, histopathology", "setting": "Wistar rats [5]; 1000 mg/kg", "value": "diffuse white pulp and distorted lymphoid architecture"}, {"measurement": "SOD level, spleen", "setting": "Wistar rats [6]; compared with IG-01–007 and IG-01–008 at 300 mg/kg", "value": "significant reduction of SOD level"}, {"measurement": "SOD level, spleen", "setting": "Wistar rats [6]; compared with control and 1 % DMSO", "value": "significant decrease seen in SOD level"}, {"measurement": "DNA fragmentation", "setting": "HCT-116 cells [7]", "value": "DNA fragmentation"}, {"measurement": "migration percentages", "setting": "CT-26 cells [8]; CT-26, 25 μM", "value": 45.61, "unit": "%"}, {"measurement": "migration percentages", "setting": "CT-26 cells [8]; CT-26, 50 μM", "value": 30.62, "unit": "%"}, {"measurement": "IC50", "setting": "[9]", "value": "61.2 ± 21.2", "unit": "µM"}, {"measurement": "DNA fragmentation", "setting": "CT-26 cells [10]", "value": "DNA fragmentation"}, {"measurement": "Globulin", "setting": "Wistar rats [11]; 300 mg/kg", "value": "3.80 ± 0.404", "unit": "g/dL"}, {"measurement": "A/G ratio", "setting": "Wistar rats [11]; 300 mg/kg", "value": "0.69 ± 0.0608"}, {"measurement": "Albumin", "setting": "Wistar rats [11]; 300 mg/kg", "value": "3.33 ± 0.437", "unit": "g/dL"}, {"measurement": "Total protein", "setting": "Wistar rats [11]; 300 mg/kg", "value": "7.03 ± 0.491", "unit": "g/dL"}, {"measurement": "SGPT (ALT)", "setting": "Wistar rats [11]; 300 mg/kg", "value": "47.66 ± 2.728", "unit": "U/L"}, {"measurement": "ALP", "setting": "Wistar rats [11]; 300 mg/kg", "value": "307.33 ± 7.218", "unit": "U/L"}, {"measurement": "SGOT (AST)", "setting": "Wistar rats [11]; 300 mg/kg", "value": "193 ± 12.74", "unit": "U/L"}, {"measurement": "Globulin", "setting": "Wistar rats [11]; 1000 mg/kg", "value": "4.006 ± 0.1034", "unit": "g/dL"}, {"measurement": "A/G ratio", "setting": "Wistar rats [11]; 1000 mg/kg", "value": "0.6966 ± 0.0317"}, {"measurement": "Albumin", "setting": "Wistar rats [11]; 1000 mg/kg", "value": "3.683 ± 0.261", "unit": "g/dL"}, {"measurement": "Total protein", "setting": "Wistar rats [11]; 1000 mg/kg", "value": "7.40 ± 0.324", "unit": "g/dL"}, {"measurement": "SGPT (ALT)", "setting": "Wistar rats [11]; 1000 mg/kg", "value": "75.33 ± 4.05", "unit": "U/L"}, {"measurement": "Triglycerides", "setting": "Wistar rats [11]; 1000 mg/kg, normal range 20–114, mean ± S.E.M", "value": "115 ± 4.055", "unit": "mg%"}, {"measurement": "ALP", "setting": "Wistar rats [11]; 1000 mg/kg", "value": "343.0 ± 10.785", "unit": "U/L"}, {"measurement": "SGOT (AST)", "setting": "Wistar rats [11]; 1000 mg/kg", "value": "242 ± 3.785", "unit": "U/L"}]}]}
